Holding throughout (details): Table 35
The target in experiment [1] is RIP1 (Homo sapiens (Human), UniProt Q13546). Kind of experiment: KINOMEscan binding assay, RIP1.
The target of experiment [2] is RIP3 (Homo sapiens (Human), UniProt Q9Y572). In words: KINOMEscan binding assay, RIP3. The method, then:
(§1) Kinase assays. For most assays, kinase-tagged T7 phage strains were grown in parallel in 24-well blocks in an E. coli host derived from the BL21 strain. E. coli were grown to log-phase and infected with T7 phage from a frozen stock (multiplicity of infection=0.4) and incubated with shaking at 32° C. until lysis (90-150 minutes).
(§2) The Hill Slope was set to −1.

For experiment [3], the target named is MLKL (full length) (Homo sapiens (Human), UniProt Q8NB16). Kind of experiment: KINOMEscan binding assay, MLKL (full length). As for the experimental part:
as §1, §2

Usually Kd stands for a measure of binding affinity in units of concentration. Higher therefore signals a looser complex.

Sequence of RIP1 (Q13546 whole entry): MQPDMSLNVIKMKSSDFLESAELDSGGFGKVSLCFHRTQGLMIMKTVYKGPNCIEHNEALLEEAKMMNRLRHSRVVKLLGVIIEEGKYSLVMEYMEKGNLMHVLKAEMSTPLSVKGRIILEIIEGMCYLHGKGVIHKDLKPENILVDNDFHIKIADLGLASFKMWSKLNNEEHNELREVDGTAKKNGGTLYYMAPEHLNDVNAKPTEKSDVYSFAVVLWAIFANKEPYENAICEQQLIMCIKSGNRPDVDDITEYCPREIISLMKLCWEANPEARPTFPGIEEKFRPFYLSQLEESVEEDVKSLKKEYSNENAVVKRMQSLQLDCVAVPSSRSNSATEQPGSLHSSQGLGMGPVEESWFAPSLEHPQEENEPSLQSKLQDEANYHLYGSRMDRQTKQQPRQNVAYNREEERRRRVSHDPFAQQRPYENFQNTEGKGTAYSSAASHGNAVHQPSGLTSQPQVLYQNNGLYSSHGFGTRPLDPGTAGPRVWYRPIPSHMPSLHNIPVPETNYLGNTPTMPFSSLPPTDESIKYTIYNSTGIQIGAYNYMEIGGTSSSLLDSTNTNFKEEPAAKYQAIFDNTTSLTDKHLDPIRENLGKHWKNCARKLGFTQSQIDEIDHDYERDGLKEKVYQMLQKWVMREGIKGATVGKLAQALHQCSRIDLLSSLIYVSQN
Sequence of MLKL (full length) (Q8NB16 whole entry): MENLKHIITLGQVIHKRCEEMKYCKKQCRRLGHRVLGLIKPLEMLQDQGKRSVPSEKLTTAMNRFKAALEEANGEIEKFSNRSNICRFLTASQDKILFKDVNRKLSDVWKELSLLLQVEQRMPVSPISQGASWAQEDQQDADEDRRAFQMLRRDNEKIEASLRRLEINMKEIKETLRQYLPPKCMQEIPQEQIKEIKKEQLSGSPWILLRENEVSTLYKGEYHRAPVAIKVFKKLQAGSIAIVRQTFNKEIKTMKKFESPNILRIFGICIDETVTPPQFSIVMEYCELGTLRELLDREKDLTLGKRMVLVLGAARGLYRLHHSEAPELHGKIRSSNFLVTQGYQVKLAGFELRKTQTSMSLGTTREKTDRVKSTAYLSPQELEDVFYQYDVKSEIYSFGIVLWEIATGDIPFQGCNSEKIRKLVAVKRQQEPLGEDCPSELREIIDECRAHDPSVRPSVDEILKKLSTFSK
Sequence of RIP3 (Q9Y572 whole entry): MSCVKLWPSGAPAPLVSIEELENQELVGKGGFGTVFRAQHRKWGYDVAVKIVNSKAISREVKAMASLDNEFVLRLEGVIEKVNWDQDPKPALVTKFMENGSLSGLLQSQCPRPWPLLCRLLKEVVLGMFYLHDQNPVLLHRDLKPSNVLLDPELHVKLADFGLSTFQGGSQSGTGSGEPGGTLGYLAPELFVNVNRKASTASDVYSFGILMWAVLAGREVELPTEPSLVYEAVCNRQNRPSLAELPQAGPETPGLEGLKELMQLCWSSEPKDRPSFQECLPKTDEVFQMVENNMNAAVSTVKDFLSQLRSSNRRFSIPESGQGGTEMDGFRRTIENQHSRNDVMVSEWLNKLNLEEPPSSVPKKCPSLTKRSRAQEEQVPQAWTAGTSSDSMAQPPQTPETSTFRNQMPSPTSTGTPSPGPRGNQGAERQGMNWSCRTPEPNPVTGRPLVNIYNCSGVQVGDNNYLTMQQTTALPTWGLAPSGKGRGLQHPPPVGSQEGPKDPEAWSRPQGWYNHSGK

As for `NC(=O)c1c(-c2ccc(NS(=O)(=O)C(F)(F)F)cc2)n[nH]c1Nc1cccc(C(F)(F)F)n1` [Compound 205], the Kd in experiment [1] is > 30 µM; in experiment [2] it was > 30 µM; in experiment [3], < 0.01 µM.

In the case of `CCS(=O)(=O)Nc1ccc(-c2n[nH]c(Nc3cnccn3)c2C(N)=O)cc1OCCc1ccccc1Cl` [Compound 206, 3-(3-(2-chlorophenethoxy)-4-(ethylsulfonamido)phenyl)-5-(pyrazin-2-ylamino)-1H-pyrazole-4-carboxamide], the Kd in experiment [1] is > 30 µM; in experiment [2] it was > 30 µM; in experiment [3] it was < 0.01 µM.

As to `CCS(=O)(=O)Nc1ccc(-c2n[nH]c(Nc3cnccn3)c2C(N)=O)cc1OCCc1ccccc1` [Compound 210, 3-(4-(ethylsulfonamido)-3-phenethoxyphenyl)-5-(pyrazin-2-ylamino)-1H-pyrazole-4-carboxamide], the Kd is > 30 µM in experiment [1], > 30 µM in experiment [2] and < 0.01 µM in experiment [3].

Consider `CCS(=O)(=O)Nc1ccc(-c2n[nH]c(Nc3cnccn3)c2C(N)=O)cc1OCCc1ccccc1F` [Compound 211, 3-(4-(ethylsulfonamido)-3-(2-fluorophenethoxy)phenyl)-5-(pyrazin-2-ylamino)-1H-pyrazole-4-carboxamide], for which the values for the Kd in experiment [1], in experiment [2] and in experiment [3] were > 30 µM, > 30 µM and < 0.01 µM, respectively.

Turning to `CCS(=O)(=O)Nc1ccc(-c2n[nH]c(Nc3cc(C(F)(F)F)ccn3)c2C(N)=O)cc1OCc1ccc(F)cc1` [Compound 213], the Kd in experiment [1] is > 30 µM; in experiment [2], > 30 µM; in experiment [3], 0.01 to 1 µM.

Turning to `NC(=O)c1c(-c2ccc(NS(=O)(=O)C(F)F)c(OCc3ccc(F)cc3)c2)n[nH]c1Nc1cccc(C(F)(F)F)n1` [Compound 217], the Kd in experiment [1] is > 30 µM; in experiment [2], > 30 µM; in experiment [3] it was < 0.01 µM.

Turning to `CCS(=O)(=O)Nc1ccc(-c2n[nH]c(Nc3cnccn3)c2C(N)=O)cc1OCCc1cccc(F)c1` [Compound 219, 3-(4-(ethylsulfonamido)-3-(3-fluorophenethoxy)phenyl)-5-(pyrazin-2-ylamino)-1H-pyrazole-4-carboxamide], the Kd in experiment [1] is > 30 µM; in experiment [2], > 30 µM; in experiment [3], < 0.01 µM.

`COCCOc1cc(Nc2[nH]nc(-c3ccc(NS(=O)(=O)N(C)C)cc3)c2C(N)=O)ccn1` [Compound 221, 3-(4-((N,N-dimethylsulfamoyl)amino)phenyl)-5-((2-(2-methoxyethoxy)pyridin-4-yl)amino)-1H-pyrazole-4-carboxamide]: the Kd in experiment [1] is > 30 µM; in experiment [2] it was > 30 µM; in experiment [3], < 0.01 µM.

`C[C@H](Oc1cc(-c2n[nH]c(Nc3cnccn3)c2C(N)=O)ccc1NS(=O)(=O)C(F)F)c1ccc(F)cc1` [Compound 223, 3-[4-(difluoromethanesulfonamido)-3-[(1S)-1-(4-fluorophenyl)ethoxy]phenyl]-5-[(pyrazin-2-yl)amino]-1H-pyrazole-4-carboxamide]: the Kd in experiment [1] was > 30 µM; in experiment [2], > 30 µM; in experiment [3] it was < 0.01 µM.

Take `NC(=O)c1c(-c2ccc(NS(=O)(=O)CC(F)(F)F)c(OCc3ccc(F)c(Cl)c3)c2)n[nH]c1Nc1cnccn1` [Compound 225, 3-{3-[(3-chloro-4-fluorophenyl)methoxy]-4-(2,2,2-trifluoroethane-sulfonamido)phenyl}-5-[(pyrazin-2-yl)amino]-1H-pyrazole-4-carboxamide]: the values for the Kd in experiment [1], in experiment [2] and in experiment [3] were > 30 µM, > 30 µM and < 0.01 µM, respectively.

In the case of `NC(=O)c1c(-c2ccc(NS(=O)(=O)C(F)F)c(OCc3ccc(F)c(F)c3)c2)n[nH]c1Nc1ccccn1` [Compound 226], the Kd in experiment [1] is > 30 µM; in experiment [2] it was > 30 µM; in experiment [3], < 0.01 µM.

On to `NC(=O)c1c(-c2ccc(NS(=O)(=O)CC(F)(F)F)c(OCc3ccccn3)c2)n[nH]c1Nc1cnccn1` [Compound 227, 5-[(pyrazin-2-yl)amino]-3-{3-[(pyridin-2-yl)methoxy]-4-(2,2,2-trifluoroethanesulfonamido)phenyl}-1H-pyrazole-4-carboxamide], for which the Kd in experiment [1] is > 30 µM; in experiment [2], > 30 µM; in experiment [3] it was < 0.01 µM.

Turning to `CCS(=O)(=O)Nc1ccc(-c2n[nH]c(Nc3cnccn3)c2C(N)=O)cc1OC(C)(C)c1ccc(F)cc1` [Compound 228, 3-(4-ethanesulfonamido-3-{[2-(4-fluorophenyl)propan-2-yl]oxy}phenyl)-5-[(pyrazin-2-yl)amino]-1H-pyrazole-4-carboxamide], the Kd is > 30 µM in experiment [1], > 30 µM in experiment [2] and < 0.01 µM in experiment [3].

For the molecule `C[C@H](Oc1cc(-c2n[nH]c(Nc3cccc(C(F)(F)F)n3)c2C(N)=O)ccc1NS(=O)(=O)C(F)F)c1ccc(F)cc1` [Compound 229, 3-[4-(difluoromethanesulfonamido)-3-[(1S)-1-(4-fluorophenyl)ethoxy]phenyl]-5-{[6-(trifluoromethyl)pyridin-2-yl]amino}-1H-pyrazole-4-carboxamide], the Kd was > 30 µM in experiment [1], > 30 µM in experiment [2] and < 0.01 µM in experiment [3].

As for `CCS(=O)(=O)Nc1ccc(-c2n[nH]c(Nc3cnccn3)c2C(N)=O)cc1O[C@@H](C)c1ccccn1` [Compound 230, 3-{4-ethanesulfonamido-3-[(1S)-1-(pyridin-2-yl)ethoxy]phenyl}-5-[(pyrazin-2-yl)amino]-1H-pyrazole-4-carboxamide], the Kd was > 30 µM in experiment [1], > 30 µM in experiment [2] and < 0.01 µM in experiment [3].

Consider `NC(=O)c1c(-c2ccc(NS(=O)(=O)CC(F)(F)F)c(OCc3ccc(F)cn3)c2)n[nH]c1Nc1cnccn1` [Compound 231, 3-(3-((5-fluoropyridin-2-yl)methoxy)-4-((2,2,2-trifluoroethyl)sulfonamido)phenyl)-5-(pyrazin-2-ylamino)-1H-pyrazole-4-carboxamide], for which the Kd in experiment [1] is > 30 µM; in experiment [2], > 30 µM; in experiment [3], < 0.01 µM.

Regarding `CCS(=O)(=O)Nc1ccc(-c2n[nH]c(Nc3cnccn3)c2C(N)=O)cc1OC1CCCc2ccccc21` (stereo not drawn) [Compound 232, 3-[4-ethanesulfonamido-3-(1,2,3,4-tetrahydronaphthalen-1-yloxy)phenyl]-5-[(pyrazin-2-yl)amino]-1H-pyrazole-4-carboxamide], the Kd in experiment [1] was > 30 µM; in experiment [2] it was > 30 µM; in experiment [3], < 0.01 µM.

In the case of `NC(=O)c1c(-c2ccc(NS(=O)(=O)CC(F)(F)F)c(OCc3ccc(Cl)cc3)c2)n[nH]c1Nc1cnc(C(F)(F)F)cn1` [Compound 234, 3-{3-[(4-chlorophenyl)methoxy]-4-(2,2,2-trifluoroethanesulfonamido)phenyl}-5-{[5-(trifluoromethyl)pyrazin-2-yl]amino}-1H-pyrazole-4-carboxamide], the Kd in experiment [1] is > 30 µM; in experiment [2], > 30 µM; in experiment [3], < 0.01 µM.

As for `NC(=O)c1c(-c2ccc(NS(=O)(=O)C(F)F)c(OCc3ccc(Cl)cc3)c2)n[nH]c1Nc1cnc(C(F)(F)F)cn1` [Compound 235, 3-(3-((4-chlorobenzyl)oxy)-4-((difluoromethyl)sulfonamido)phenyl)-5-((5-(trifluoromethyl)pyrazin-2-yl)amino)-1H-pyrazole-4-carboxamide], the values for the Kd in experiment [1], in experiment [2] and in experiment [3] were > 30 µM, > 30 µM and < 0.01 µM, respectively.

Take `NC(=O)c1c(-c2ccc(NS(=O)(=O)C(F)F)c(OC(c3ccc(F)cc3)C3CCC3)c2)n[nH]c1Nc1cnccn1` (stereo not drawn) [Compound 236, 3-{3-[cyclobutyl(4-fluorophenyl)methoxy]-4-(difluoromethanesulfonamido)phenyl}-5-[(pyrazin-2-yl)amino]-1H-pyrazole-4-carboxamide]: the figures for the Kd in experiment [1], in experiment [2] and in experiment [3] were > 30 µM, > 30 µM and < 0.01 µM, respectively.

Consider `N#Cc1cccc(Nc2[nH]nc(-c3ccc(NS(=O)(=O)CC(F)(F)F)cc3)c2C(N)=O)n1` [Compound 237, 5-[(6-cyanopyridin-2-yl)amino]-3-[4-(2,2,2-trifluoroethanesulfonamido)phenyl]-1H-pyrazole-4-carboxamide], for which the Kd is > 30 µM in experiment [1], > 30 µM in experiment [2] and < 0.01 µM in experiment [3].

For `NC(=O)c1c(-c2ccc(NS(=O)(=O)CC(F)(F)F)c(OCc3ccc(F)cc3)c2)n[nH]c1Nc1ccccn1` [Compound 239, 3-{3-[(4-fluorophenyl)methoxy]-4-(2,2,2-trifluoroethanesulfonamido)phenyl}-5-[(pyridin-2-yl)amino]-1H-pyrazole-4-carboxamide], the figures for the Kd in experiment [1], in experiment [2] and in experiment [3] were > 30 µM, > 30 µM and < 0.01 µM, respectively.

For the molecule `NC(=O)c1c(-c2ccc(NS(=O)(=O)CC(F)(F)F)c(OCc3ccc(F)cn3)c2)n[nH]c1Nc1ccccn1` [Compound 240, 3-{3-[(5-fluoropyridin-2-yl)methoxy]-4-(2,2,2-trifluoroethanesulfonamido)phenyl}-5-[(pyridin-2-yl)amino]-1H-pyrazole-4-carboxamide], the Kd in experiment [1] is > 30 µM; in experiment [2], > 30 µM; in experiment [3] it was < 0.01 µM.

For `CCS(=O)(=O)Nc1ccc(-c2n[nH]c(Nc3ccccn3)c2C(N)=O)cc1OCc1ccc(F)cn1` [Compound 241, 3-{4-ethanesulfonamido-3-[(5-fluoropyridin-2-yl)methoxy]phenyl}-5-[(pyridin-2-yl)amino]-1H-pyrazole-4-carboxamide], the values for the Kd in experiment [1], in experiment [2] and in experiment [3] were > 30 µM, > 30 µM and < 0.01 µM, respectively.

As for `CCS(=O)(=O)Nc1ccc(-c2n[nH]c(Nc3cnccn3)c2C(N)=O)cc1OCc1ccc(Cl)cn1` [Compound 242, 3-{3-[(5-chloropyridin-2-yl)methoxy]-4-ethanesulfonamidophenyl}-5-[(pyrazin-2-yl)amino]-1H-pyrazole-4-carboxamide], the dissociation constant (Kd) in experiment [1] is > 30 µM; in experiment [2], > 30 µM; in experiment [3], < 0.01 µM.

Source of the values: patent US20250074891A1 (Anaxis Pharma Pty Ltd., priority 2021, published 2025).
